Laboratory results as given in patent US8748624B2, “Picolinamido-propanoic acid derivatives useful as glucagon receptor antagonists” (Janssen Pharmaceutica NV, priority 2011, dated 2014).

What follows are compounds tested against human GCGR (Homo sapiens (Human), UniProt P47871) (assay: Cellular functional assay, cAMP readout (glucagon-stimulated cAMP in HEK293 cells expressing human GCGR)). Settings: hGluc-1 HEK cells, LANCE TR-FRET, IC50 converted to Ki, average if tested more than once.
Format: cell-based
Experimental: IC50 Values in Cellular Functional Assays: cAMP Readout
Full-length human GCGR (Accession Number: NM000160) subcloned into pcDNA3.1 was stably transfected into HEK293 cells (hGluc-1 HEK) and maintained under G418 selection (500 μg/mL). Cell cultures were maintained in DMEM/F12 media supplemented with 10% FBS and 1% GlutaMax. Glucagon stimulated cAMP was quantified using LANCE technology as per manufacturer instructions. On the day of the experiment, spent media was removed and cells were washed with Hank's Buffered Saline solution (HBSS) and cells were harvested with non-enzymatic cell dissociation solution, then washed once with HBSS. Cells were re-suspended in stimulation buffer at a concentration of 0.83×10^6 cells/ml and cAMP detection antibody was added. 6 μl/well of this solution was then dispensed in a 384 well plate (cell density 5000 cells/well). Test compound was serially diluted in DMSO and 50 nl were dispensed on top of the cell solution and allowed to incubate for 30 minutes. 6 μl of a 2× glucagon solution (final concentration in assay […]) was then added and the reaction was terminated after 5 minutes with the addition of detection mix. The mixture was incubated, protected from light for 1.5 h. cAMP levels were quantified by TR-FRET in an EnVision instrument against a known standard. IC50's were generated by using a non-linear regression macro driven in Excel and converted to K, values.

human GCGR, sequence (P47871 26-477): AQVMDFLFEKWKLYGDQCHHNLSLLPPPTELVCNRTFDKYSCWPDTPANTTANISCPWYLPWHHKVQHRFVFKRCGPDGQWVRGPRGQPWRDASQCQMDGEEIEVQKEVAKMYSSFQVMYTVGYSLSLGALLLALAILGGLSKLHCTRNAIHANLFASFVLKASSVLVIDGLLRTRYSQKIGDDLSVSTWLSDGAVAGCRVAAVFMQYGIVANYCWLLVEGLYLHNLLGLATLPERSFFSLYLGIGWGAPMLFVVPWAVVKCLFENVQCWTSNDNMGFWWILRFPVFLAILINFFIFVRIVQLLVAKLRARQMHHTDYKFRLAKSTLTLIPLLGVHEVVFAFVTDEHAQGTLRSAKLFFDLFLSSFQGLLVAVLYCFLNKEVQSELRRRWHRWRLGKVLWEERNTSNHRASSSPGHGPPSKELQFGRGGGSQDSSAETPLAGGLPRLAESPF

Point of comparison: N#Cc1cc(NCc2ccc(Cl)cc2-c2ccc(C(=O)NCCC(=O)O)nc2)ccc1-c1ccc(Cl)c(C(F)(F)F)c1 [Compound 98, 3-(5-(5-chloro-2-(((4′-chloro-2-cyano-3′-(trifluoromethyl)-[1,1′-biphenyl]-4-yl)amino)methyl)phenyl)picolinamido)propanoic acid], Ki 195 nM. Against it:
- O=C(O)CCNC(=O)c1ccc(-c2cc(Cl)ccc2CNc2ccc(-c3ccc(F)cc3F)cc2)cn1 [Compound 18, 3-(5-(5-chloro-2-(((2′,4′-difluoro-[1,1′-biphenyl]-4-yl)amino)methyl)phenyl)picolinamido)propanoic acid] — within 1.5-fold, 280 nM
- O=C(O)CCNC(=O)c1ccc(-c2cc(C(F)(F)F)ccc2CNc2ccc(-c3ccc(Cl)cc3C(F)(F)F)cc2)cn1 [Compound 25] — within 1.5-fold, 220 nM
- COc1ccc(CNc2ccc(-c3ccc(Cl)cc3)cc2)c(-c2ccc(C(=O)NCCC(=O)O)nc2)c1 [Compound 45, 3-(5-(2-(((4′-chloro-[1,1′-biphenyl]-4-yl)amino)methyl)-5-methoxyphenyl)picolinamido)propanoic acid] — higher, > 20000 nM
- COc1ccc(CNc2ccc(-c3ccc(Cl)cc3Cl)cc2)c(-c2ccc(C(=O)NCCC(=O)O)nc2)c1 [Compound 46, 3-(5-(2-(((2′,4′-dichloro-[1,1′-biphenyl]-4-yl)amino)methyl)-5-methoxyphenyl)picolinamido)propanoic acid] — higher, > 20000 nM
- COc1ccc(CNc2ccc(-c3ccc(C(F)(F)F)cc3)cc2)c(-c2ccc(C(=O)NCCC(=O)O)nc2)c1 [Compound 47, 3-(5-(5-methoxy-2-(((4′-(trifluoromethyl)-[1,1′-biphenyl]-4-yl)amino)methyl)phenyl)picolinamido)propanoic acid] — higher, > 20000 nM
- COc1ccc(CNc2ccc(-c3ccc(OC(F)(F)F)cc3)cc2)c(-c2ccc(C(=O)NCCC(=O)O)nc2)c1 [Compound 48, 3-(5-(5-methoxy-2-(((4′-(trifluoromethoxy)-[1,1′-biphenyl]-4-yl)amino)methyl)phenyl)picolinamido)propanoic acid] — higher, > 20000 nM
- COc1ccc(CNc2ccc(-c3ccc(C(C)(C)C)cc3)cc2)c(-c2ccc(C(=O)NCCC(=O)O)nc2)c1 [Compound 49, 3-(5-(2-(((4′-(tert-butyl)-[1,1′-biphenyl]-4-yl)amino)methyl)-5-methoxyphenyl)picolinamido)propanoic acid] — higher, > 20000 nM
- COc1ccc(CNc2ccc(-c3cccc(OC(F)(F)F)c3)cc2)c(-c2ccc(C(=O)NCCC(=O)O)nc2)c1 [Compound 50, 3-(5-(5-methoxy-2-(((3′-(trifluoromethoxy)-[1,1′-biphenyl]-4-yl)amino)methyl)phenyl)picolinamido)propanoic acid] — higher, > 20000 nM
- O=C(O)CCNC(=O)c1ccc(-c2cc(C(F)(F)F)cc(C(F)(F)F)c2CNc2ccc(-c3ccc(Cl)cc3)c(Cl)c2)cn1 [Compound 76, 3-(5-(2-(((2,4′-dichloro-[1,1′-biphenyl]-4-yl)amino)methyl)-3,5-bis(trifluoromethyl)phenyl)picolinamido)propanoic acid] — 13-fold lower, 14.5 nM
- Cc1cc(Cl)ccc1-c1ccc(NCc2c(-c3ccc(C(=O)NCCC(=O)O)nc3)cc(C(F)(F)F)cc2C(F)(F)F)cc1 [Compound 81, 3-(5-(2-(((4′-chloro-2′-methyl-[1,1′-biphenyl]-4-yl)amino)methyl)-3,5-bis(trifluoromethyl)phenyl)picolinamido)propanoic acid] — 20-fold lower, 10 nM
- Cc1cc(C(F)(F)F)ccc1-c1ccc(NCc2c(-c3ccc(C(=O)NCCC(=O)O)nc3)cc(C(F)(F)F)cc2C(F)(F)F)cc1 [Compound 83, 3-(5-(2-(((2′-methyl-4′-(trifluoromethyl)-[1,1′-biphenyl]-4-yl)amino)methyl)-3,5-bis(trifluoromethyl)phenyl)picolinamido)propanoic acid] — 14-fold lower, 14.1 nM
- O=C(O)CCNC(=O)c1ccc(-c2cc(C(F)(F)F)cc(C(F)(F)F)c2CNc2ccc(-c3cccc(Cl)c3Cl)cc2)cn1 [Compound 84, 3-(5-(2-(((2′,3′-dichloro-[1,1′-biphenyl]-4-yl)amino)methyl)-3,5-bis(trifluoromethyl)phenyl)picolinamido)propanoic acid] — 5.3-fold lower, 36.7 nM
- O=C(O)CCNC(=O)c1ccc(-c2cc(C(F)(F)F)cc(C(F)(F)F)c2CNc2ccc(-c3c(Cl)cccc3Cl)cc2)cn1 [Compound 85, 3-(5-(2-(((2′,6′-dichloro-[1,1′-biphenyl]-4-yl)amino)methyl)-3,5-bis(trifluoromethyl)phenyl)picolinamido)propanoic acid] — 6-fold lower, 32.4 nM
- Cc1cc(NCc2c(-c3ccc(C(=O)NCCC(=O)O)nc3)cc(C(F)(F)F)cc2C(F)(F)F)ccc1-c1ccc(Cl)cc1 [Compound 86, 3-(5-(2-(((4′-chloro-2-methyl-[1,1′-biphenyl]-4-yl)amino)methyl)-3,5-bis(trifluoromethyl)phenyl)picolinamido)propanoic acid] — 5.6-fold lower, 35 nM
- O=C(O)CCNC(=O)c1ccc(-c2cc(C(F)(F)F)cc(C(F)(F)F)c2CNc2ccc(-c3ccc(Cl)cc3Cl)cc2)cn1 [Compound 87, 3-(5-(2-(((2′,4′-dichloro-[1,1′-biphenyl]-4-yl)amino)methyl)-3,5-bis(trifluoromethyl)phenyl)picolinamido)propanoic acid] — 11-fold lower, 17.3 nM
- N#Cc1cc(NCc2ccc(Cl)cc2-c2ccc(C(=O)NCCC(=O)O)nc2)ccc1-c1ccc(Cl)cc1Cl [Compound 99, 3-(5-(5-chloro-2-(((2′,4′-dichloro-2-cyano-[1,1′-biphenyl]-4-yl)amino)methyl)phenyl)picolinamido)propanoic acid] — 3-fold lower, 65.4 nM
- N#Cc1cc(NCc2ccc(Cl)cc2-c2ccc(C(=O)NCCC(=O)O)nc2)ccc1-c1ccc(F)c(C(F)(F)F)c1 [Compound 100, 3-(5-(5-chloro-2-(((2-cyano-4′-fluoro-3′-(trifluoromethyl)-[1,1′-biphenyl]-4-yl)amino)methyl)phenyl)picolinamido)propanoic acid] — within 1.5-fold, 135 nM
- N#Cc1cc(NCc2ccc(Cl)cc2-c2ccc(C(=O)NCCC(=O)O)nc2)ccc1-c1cccc(C(F)(F)F)c1Cl [Compound 101, 3-(5-(5-chloro-2-(((2′-chloro-2-cyano-3′-(trifluoromethyl)-[1,1′-biphenyl]-4-yl)amino)methyl)phenyl)picolinamido)propanoic acid] — 2.1-fold lower, 95 nM
- Cc1cc(Cl)ccc1-c1ccc(NCc2ccc(C(F)(F)F)cc2-c2ccc(C(=O)NCCC(=O)O)nc2)cc1C(F)(F)F [Compound 119, 3-(5-(2-(((4′-chloro-2′-methyl-2-(trifluoromethyl)-[1,1′-biphenyl]-4-yl)amino)methyl)-5-(trifluoromethyl)phenyl)picolinamido)propanoic acid] — 3.2-fold lower, 60 nM
- Cc1cc(C(F)(F)F)ccc1-c1ccc(NCc2ccc(C(F)(F)F)cc2-c2ccc(C(=O)NCCC(=O)O)nc2)cc1C(F)(F)F [Compound 120, 3-(5-(2-(((2′-methyl-2,4′-bis(trifluoromethyl)-[1,1′-biphenyl]-4-yl)amino)methyl)-5-(trifluoromethyl)phenyl)picolinamido)propanoic acid] — 5.2-fold lower, 37.4 nM
- O=C(O)CCNC(=O)c1ccc(-c2cc(C(F)(F)F)ccc2CNc2ccc(-c3ccc(F)c(C(F)(F)F)c3)c(C(F)(F)F)c2)cn1 [Compound 121, 3-(5-(2-(((4′-fluoro-2,3′-bis(trifluoromethyl)-[1,1′-biphenyl]-4-yl)amino)methyl)-5-(trifluoromethyl)phenyl)picolinamido)propanoic acid] — 1.9-fold lower, 100 nM
- O=C(O)CCNC(=O)c1ccc(-c2cc(C(F)(F)F)ccc2CNc2ccc(-c3ccc(Cl)cc3Cl)c(C(F)(F)F)c2)cn1 [Compound 122, 3-(5-(2-(((2′,4′-dichloro-2-(trifluoromethyl)-[1,1′-biphenyl]-4-yl)amino)methyl)-5-(trifluoromethyl)phenyl)picolinamido)propanoic acid] — 2.3-fold lower, 85 nM
- O=C(O)CCNC(=O)c1ccc(-c2cc(C(F)(F)F)ccc2CNc2ccc(-c3ccc(Cl)cc3)c(C(F)(F)F)c2)cn1 [Compound 123, 3-(5-(2-(((4′-chloro-2-(trifluoromethyl)-[1,1′-biphenyl]-4-yl)amino)methyl)-5-(trifluoromethyl)phenyl)picolinamido)propanoic acid] — 1.8-fold lower, 110 nM
- CC(C)(C)c1ccc(-c2ccc(NCc3ccc(C(F)(F)F)cc3-c3ccc(C(=O)NCCC(=O)O)nc3)cc2C(F)(F)F)cc1 [Compound 124, 3-(5-(2-(((4′-(tert-butyl)-2-(trifluoromethyl)-[1,1′-biphenyl]-4-yl)amino)methyl)-5-(trifluoromethyl)phenyl)picolinamido)propanoic acid] — within 1.5-fold, 285 nM
- O=C(O)CCNC(=O)c1ccc(-c2cc(C(F)(F)F)ccc2CNc2ccc(-c3ccc(F)cc3F)c(C(F)(F)F)c2)cn1 [Compound 125, 3-(5-(2-(((2′,4′-difluoro-2-(trifluoromethyl)-[1,1′-biphenyl]-4-yl)amino)methyl)-5-(trifluoromethyl)phenyl)picolinamido)propanoic acid] — within 1.5-fold, 205 nM
- O=C(O)CCNC(=O)c1ccc(-c2cc(C(F)(F)F)ccc2CNc2ccc(-c3ccc(Cl)cc3F)c(C(F)(F)F)c2)cn1 [Compound 126, 3-(5-(2-(((4′-chloro-2′-fluoro-2-(trifluoromethyl)-[1,1′-biphenyl]-4-yl)amino)methyl)-5-(trifluoromethyl)phenyl)picolinamido)propanoic acid] — higher, > 5200 nM
